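How tested: cells in 96-well plates exposed to compound for 48 hours at five concentrations. The concentration for full growth arrest is given as TGI.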
Experiments:
Experiment in all cases: NCI-60 cell line screen, 48 h
U251 CNS = system: U251 CNS
NCI-H226 lung = system: NCI-H226 lung
SW-620 colon = system: SW-620 colon
HOP-62 NSCLC = system: HOP-62 NSCLC
HL-60(TB) leukemia = system: HL-60(TB) leukemia
M14 melanoma = system: M14 melanoma
SN12C renal = system: SN12C renal
EKVX NSCLC = system: EKVX NSCLC
T-47D breast = system: T-47D breast
A498 renal = system: A498 renal

SMILES	TGI (U251 CNS)	TGI (NCI-H226 lung)	TGI (SW-620 colon)	TGI (HOP-62 NSCLC)	TGI (HL-60(TB) leukemia)	TGI (M14 melanoma)	TGI (SN12C renal)	TGI (EKVX NSCLC)	TGI (T-47D breast)	TGI (A498 renal)
COC(=O)CC(=O)OC1C[C@@H]2CCC3C(C)(C)CCC[C@]3(C)C23CC[C@@]1(C)C3 (stereo partly specified)	31.2 µM	46.7 µM	32.1 µM	34.1 µM	> 100 µM	33.7 µM	31.3 µM			
COc1ccc(Cl)cc1NC(=O)O/N=C(\Cl)C(C)C	> 59.4 µM	33.2 µM		35.2 µM	> 24.5 µM	13 µM	23.4 µM	13.5 µM	16.8 µM	46.8 µM
COC(=O)c1sc2c(c1C(=O)OC)C(=Nc1ccc(OC)cc1)SC2=Nc1ccc(OC)cc1	1.03 µM	3.55 µM	0.7 µM	2.23 µM	0.552 µM	3 µM	1.94 µM	3.02 µM		3.01 µM
N#C/C(=C/c1ccc([N+](=O)[O-])o1)c1ccccc1	> 100 µM	> 100 µM	> 100 µM	> 100 µM	> 100 µM	> 100 µM	> 100 µM	> 100 µM		
COC(=O)C(=O)C(C(=O)C(=O)Nc1cc(C)ccc1C)c1nc2ccccc2[nH]c1=O (stereo unspecified)	> 100 µM	> 100 µM	> 100 µM	> 100 µM		> 100 µM	> 100 µM	> 100 µM	> 100 µM	> 100 µM
CC(=O)N(C(=O)CC(=O)N1N=C(C)C(N=Nc2cccc([N+](=O)[O-])c2)C1=O)c1ccc(Cl)cc1 (stereo unspecified)	> 10 µM		> 10 µM	> 10 µM	> 10 µM	> 10 µM	> 10 µM		> 10 µM	
COc1ccc(/C=C(\C#N)c2ccccn2)cc1OC	42 µM	95.8 µM	> 100 µM	> 100 µM	> 100 µM	> 100 µM	> 100 µM	56.9 µM		
O=C(NCC(O)COc1ccccc1)c1ccccc1O (stereo unspecified)	> 100 µM	> 100 µM	> 100 µM	> 100 µM		> 100 µM	> 100 µM	> 100 µM	> 100 µM	> 100 µM
O=C1CCNC/C1=C\c1ccccc1	38 µM	60.8 µM	95.3 µM	79 µM	47.7 µM	27.9 µM	> 100 µM	> 100 µM		> 100 µM
CC(C)=CC(=O)c1[nH]c2ccccc2c1CC(=O)NCCc1cnc[nH]1	> 100 µM	> 100 µM	> 100 µM		> 100 µM	> 100 µM	> 100 µM	> 100 µM	> 100 µM	> 100 µM
O=S(c1ccc(O)cc1)c1ccc(O)cc1	> 100 µM	> 100 µM	> 100 µM	> 100 µM	> 100 µM	> 100 µM		> 100 µM		
Cc1ccc2c(c1)CC1(Cc3cc(C)ccc3C1=O)C2=O	> 100 µM		> 100 µM	> 100 µM	> 100 µM	> 100 µM		> 100 µM	> 100 µM	> 100 µM
CCCC(O)c1ccc2[nH]c3c(C)cc([N+](=O)[O-])c(C)c3c2c1 (stereo unspecified)		> 100 µM	> 100 µM	> 100 µM	> 100 µM	> 100 µM	> 100 µM	> 100 µM		
CCOc1c2c(cc3c1C(=O)c1c(OC)cccc1C3=O)C=C(OC)CC2	> 25 µM	> 25 µM	> 25 µM	> 25 µM	13.2 µM	> 25 µM	> 25 µM	> 25 µM		> 25 µM
O=C(O)c1ccccc1Sc1ccc(C=C2NC(=S)N(c3ccccc3)C2=O)s1	> 100 µM	> 100 µM	> 100 µM	> 100 µM	82.1 µM		> 100 µM	> 100 µM	> 100 µM	> 100 µM
COc1ccc(N2C(=O)[C@@H]3[C@@H]4CC(C)CC[C@@H]4c4c([nH]c5ccccc45)[C@@H]3C2=O)cc1 (stereo partly specified)	28.8 µM	28.5 µM	47.7 µM	32.8 µM	89.4 µM	> 74.9 µM	32.5 µM	> 100 µM		35.9 µM
O=C1CC2(CCN(Cc3ccccc3)CC2)C(=O)N1N1CCCCC1	> 100 µM	> 100 µM	> 100 µM	> 100 µM	> 100 µM	> 100 µM	> 100 µM		> 100 µM	> 100 µM
COC(OC)c1cccc2c1C(=O)CCC1(CC2)OCCCCO1	> 100 µM	> 100 µM	> 100 µM	> 100 µM	> 100 µM	> 100 µM	> 100 µM			> 100 µM
CC(NC(CC12CC3CC(CC(C3)C1)C2)C(N)=O)c1ccccc1 (stereo unspecified)	26.1 µM		> 100 µM	> 100 µM	28.4 µM	45.7 µM		> 100 µM	> 100 µM	31.5 µM
c1ccc(-c2cc(-c3ccccc3)nc(-c3ccncc3)c2)cc1	> 100 µM	> 100 µM	> 100 µM	55.4 µM	> 100 µM	> 100 µM	> 100 µM	> 100 µM	> 100 µM	
CCn1c(=O)c2nc(SC)sc2n(-c2ccccc2)c1=S	> 100 µM	> 100 µM	> 100 µM	> 100 µM	19.9 µM	> 100 µM	> 100 µM	> 100 µM	> 100 µM	
COc1ccc(C(CC(=O)c2cccs2)C(=O)c2ccc3c(c2)OCO3)cc1 (stereo unspecified)	> 100 µM		> 100 µM	> 100 µM	> 100 µM	> 100 µM	> 100 µM	> 100 µM	> 100 µM	> 100 µM
COC1=CC(=O)C2(C=C1OC)OC[C@H]1Oc3c(ccc4c3C=CC(C)(C)O4)C(=O)[C@H]12 (stereo partly specified)	> 100 µM		> 100 µM	> 100 µM	44.6 µM	> 100 µM		> 100 µM		> 100 µM
CN1C/C(=C\c2ccccc2)C2=NN(C(N)=S)[C@H](c3ccccc3)[C@@H]2C1	> 100 µM	> 100 µM	> 100 µM	> 100 µM	54.8 µM	> 100 µM	> 100 µM	> 100 µM		> 100 µM

Source: PubChem BioAssay (NCI)
